Experimental data: US9573964B2, “Oxygen linked pyrimidine derivatives” (CTI BIOPHARMA CORP., priority 2005, dated 2017)

Key:
JAK2 = target: T1, JAK2 (Homo sapiens, UniProt O60674); test: In vitro kinase activity assay (PKLight), JAK2; type: biochemical
T1 construct: purchased Invitrogen PV4210
Description: (§1) All assays were carried out in 384-well white microtiter plates using the PKLight assay system from Cambrex (East Rutherford, N.J.). This assay platform is essentially a luminometric assay for the detection of ATP in the reaction using a luciferase-coupled reaction. For CDK2/Cyclin A assay, the reaction mixture consisted of the following components in 25 μL assay buffer (50 mM Hepes pH 7.5, 10 mM MgCl2, 5 mM MnCl2, 5 mM BGP, 1 mM DTT, 0.1 mM sodium orthovanadate), 1.4 μg/mL of CDK2/Cyclin A complex, 0.5 μM of RbING substrate (Invitrogen, Cat #PV2939) and 0.5 μM of ATP. The compounds were tested at 8 concentrations prepared from 4-fold serial dilution starting at 10 μM. The reaction was incubated at room temperature for 2 hr. 13 μL of PKLight ATP detection reagent was added and the reaction was incubated for 10 min. Luminescence signals were detected on a multi-label plate reader (Victor^2 V 1420, Perkin-Elmer). The other kinase assays were identical except for the following differences in reagents. For FLT3 assays, the reaction contained 2.0 μg/mL FLT3 enzyme, 5 μM of poly(Glu,Tyr) substrate (Sigma, Cat #P0275) and 4 μM of ATP. For JAK2 assays, the reaction contained 0.6 μg/mL of JAK2 enzyme, 2 μM of poly(Glu,Ala,Tyr) substrate (Sigma, Cat #P3899) and 0.2 μM of ATP. […] The analytical software, Prism 4.0 (GraphPad Software Pte Ltd) was used to generate IC50 values from the data.

[1] = system: MV4-11 (acute myeloid leukemia cell line); test: Cell-based proliferation assay for GI50, MV4-11; details: Homo sapiens; MV4-11 cells, 96 h treatment
Description: (§2) Human cancer cell lines HL60 (acute myeloid leukemia cell line), Colo205 (colon adenocarcinoma cell line), HEL92.1.7 (erythroleukemia cell line) and MV4-11 (acute myeloid leukemia cell line) were obtained from ATCC. They were cultivated in the media according to the ATCC work instructions. Colo205 cells were seeded in 96-wells plate at 5000 cells per well. HEL92.1.7 and MV4-11 cells were seeded at 6000 cells per well while HL60 cells were seeded at 8000 cells per well in 96 well plate. The plates were incubated at 37° C., 5% CO2, for 24 h. Cells were treated with compounds at various concentrations for 96 h. Cell growth was then monitored using Celltiter96 Aqueous One Solution Cell Proliferation Assay from Promega (Madison Wis.). Dose response curves were plotted to determine GI50 values for the compounds using XL-fit (ID Business Solution, Emeryville, Calif.).

FLT3 = target: T2, FLT3 (Homo sapiens, UniProt P36888); test: In vitro kinase activity assay (PKLight), FLT3; type: biochemical
T2 construct: purchased Invitrogen PV3182
T2 sequence (P36888 27-993): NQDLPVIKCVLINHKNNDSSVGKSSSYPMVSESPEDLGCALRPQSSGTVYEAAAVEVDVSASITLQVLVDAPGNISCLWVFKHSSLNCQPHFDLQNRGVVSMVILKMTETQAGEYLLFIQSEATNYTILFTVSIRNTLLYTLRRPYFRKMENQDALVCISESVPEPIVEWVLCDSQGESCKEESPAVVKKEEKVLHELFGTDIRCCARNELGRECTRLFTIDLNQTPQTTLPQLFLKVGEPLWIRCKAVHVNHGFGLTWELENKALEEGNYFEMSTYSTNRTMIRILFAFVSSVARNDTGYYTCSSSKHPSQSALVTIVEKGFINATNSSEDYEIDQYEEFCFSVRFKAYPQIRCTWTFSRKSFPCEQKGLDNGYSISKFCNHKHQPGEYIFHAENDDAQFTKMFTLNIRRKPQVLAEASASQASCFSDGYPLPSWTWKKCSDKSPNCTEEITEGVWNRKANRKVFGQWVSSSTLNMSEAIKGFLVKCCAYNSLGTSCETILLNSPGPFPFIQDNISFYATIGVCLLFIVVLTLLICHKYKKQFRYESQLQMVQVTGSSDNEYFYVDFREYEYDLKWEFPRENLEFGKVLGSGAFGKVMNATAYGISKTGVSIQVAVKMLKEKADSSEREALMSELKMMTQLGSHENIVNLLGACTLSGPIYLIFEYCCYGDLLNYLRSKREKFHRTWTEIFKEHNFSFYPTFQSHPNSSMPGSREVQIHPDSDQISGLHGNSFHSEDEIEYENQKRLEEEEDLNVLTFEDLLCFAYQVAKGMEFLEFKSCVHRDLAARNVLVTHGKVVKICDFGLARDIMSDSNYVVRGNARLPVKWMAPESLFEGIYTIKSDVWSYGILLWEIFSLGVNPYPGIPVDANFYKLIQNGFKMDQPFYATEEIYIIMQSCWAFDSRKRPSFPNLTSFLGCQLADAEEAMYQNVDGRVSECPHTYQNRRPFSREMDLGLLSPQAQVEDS
Description: as §1

CDK2/CyclinA = target: T3, CDK2/CyclinA (Homo sapiens, UniProt P24941); test: In vitro kinase activity assay (PKLight), CDK2/Cyclin A; type: biochemical; details: 0.5 μM ATP
T3 construct: purchased Invitrogen PV3267
Description: The recombinant enzymes (CDK2/CyclinA, FLT3, JAK2 and JAK2 V617F) were purchased from Invitrogen (Cat #PV3267, 3182, 4210 and 4347 respectively). All assays were carried out in 384-well white microtiter plates using the PKLight assay system from Cambrex (East Rutherford, N.J.). This assay platform is essentially a luminometric assay for the detection of ATP in the reaction using a luciferase-coupled reaction. For CDK2/Cyclin A assay, the reaction mixture consisted of the following components in 25 μL assay buffer (50 mM Hepes pH 7.5, 10 mM MgCl2, 5 mM MnCl2, 5 mM BGP, 1 mM DTT, 0.1 mM sodium orthovanadate), 1.4 μg/mL of CDK2/Cyclin A complex, 0.5 μM of RbING substrate (Invitrogen, Cat #PV2939) and 0.5 μM of ATP. The compounds were tested at 8 concentrations prepared from 4-fold serial dilution starting at 10 μM. The reaction was incubated at room temperature for 2 hr. 13 μL of PKLight ATP detection reagent was added and the reaction was incubated for 10 min. Luminescence signals were detected on a multi-label plate reader (Victor^2 V 1420, Perkin-Elmer). The other kinase assays were identical except for the following differences in reagents. For FLT3 assays, the reaction contained 2.0 μg/mL FLT3 enzyme, 5 μM of poly(Glu,Tyr) substrate (Sigma, Cat #P0275) and 4 μM of ATP. For JAK2 assays, the reaction contained 0.6 μg/mL of JAK2 enzyme, 2 μM of poly(Glu,Ala,Tyr) substrate (Sigma, Cat #P3899) and 0.2 μM of ATP. For JAK2 V617F mutant assays, the reaction contained 8.0 μg/mL of JAK2 mutant enzyme, 2 μM of poly(Glu,Ala,Tyr) substrate (Sigma, Cat #P3899) and 0.2 μM of ATP. The analytical software, Prism 4.0 (GraphPad Software Pte Ltd) was used to generate IC50 values from the data.

[2] = system: HL60 (acute myeloid leukemia cell line); test: Cell-based proliferation assay for GI50, HL60; details: Homo sapiens, HL-60; HL60 cells, 96 h treatment
Description: as §2

[3] = system: HEL92.1.7 (erythroleukemia cell line); test: Cell-based proliferation assay for GI50, HEL92.1.7; details: Homo sapiens, HEL 92.1.7; HEL92.1.7 cells, 96 h treatment
Description: as §2

[4] = system: Colo205 (colon adenocarcinoma cell line); test: Cell-based proliferation assay for GI50, Colo205; details: Homo sapiens, COLO 205; Colo205 cells, 96 h treatment
Description: as §2

JAK2 V617F = target: T4, JAK2 V617F (Homo sapiens, UniProt O60674, V617F); test: In vitro kinase activity assay (PKLight), JAK2 V617F mutant; type: biochemical
T4 construct: purchased Invitrogen PV4347
T4 sequence (O60674 whole entry V617F): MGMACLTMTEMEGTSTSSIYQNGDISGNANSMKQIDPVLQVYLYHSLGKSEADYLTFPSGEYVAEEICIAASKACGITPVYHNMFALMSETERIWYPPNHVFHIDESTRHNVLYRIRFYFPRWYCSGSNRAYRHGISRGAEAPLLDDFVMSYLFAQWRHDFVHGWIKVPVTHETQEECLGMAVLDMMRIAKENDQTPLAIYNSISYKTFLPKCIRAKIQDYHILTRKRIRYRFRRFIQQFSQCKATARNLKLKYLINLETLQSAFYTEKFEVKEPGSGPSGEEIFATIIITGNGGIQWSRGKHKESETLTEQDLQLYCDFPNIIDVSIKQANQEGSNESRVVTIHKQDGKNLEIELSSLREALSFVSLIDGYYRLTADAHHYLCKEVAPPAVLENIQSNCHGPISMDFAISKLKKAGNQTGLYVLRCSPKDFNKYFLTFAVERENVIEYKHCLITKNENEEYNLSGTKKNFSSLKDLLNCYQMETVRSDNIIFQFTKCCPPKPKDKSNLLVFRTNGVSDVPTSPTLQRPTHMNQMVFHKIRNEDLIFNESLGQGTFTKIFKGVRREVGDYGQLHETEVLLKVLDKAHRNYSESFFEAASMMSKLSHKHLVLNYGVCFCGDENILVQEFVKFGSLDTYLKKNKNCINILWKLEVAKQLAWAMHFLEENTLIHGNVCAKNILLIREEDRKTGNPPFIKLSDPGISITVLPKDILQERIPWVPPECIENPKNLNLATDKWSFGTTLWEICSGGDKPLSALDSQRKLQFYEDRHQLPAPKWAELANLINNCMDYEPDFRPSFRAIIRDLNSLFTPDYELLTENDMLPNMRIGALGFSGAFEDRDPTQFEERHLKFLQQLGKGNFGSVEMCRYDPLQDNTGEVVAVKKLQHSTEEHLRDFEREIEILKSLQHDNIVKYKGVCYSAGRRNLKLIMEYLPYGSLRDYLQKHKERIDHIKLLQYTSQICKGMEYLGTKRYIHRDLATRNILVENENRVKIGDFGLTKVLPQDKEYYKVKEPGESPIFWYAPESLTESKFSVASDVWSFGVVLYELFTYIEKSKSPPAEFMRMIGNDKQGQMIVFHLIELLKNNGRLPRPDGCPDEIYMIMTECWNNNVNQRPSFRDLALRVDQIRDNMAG
Description: as §1

T1 sequence (O60674 whole entry): as the sequence (O60674 whole entry V617F) above, with F617V counted along it

SMILES	IC50 (JAK2) [µM]	GI50 [1] [µM]	IC50 (FLT3) [µM]	IC50 (CDK2/CyclinA) [µM]	GI50 [2] [µM]	GI50 [3] [µM]	GI50 [4] [µM]	IC50 (JAK2 V617F) [µM]
C1=C/COCc2cc(ccc2OCCN2CCCC2)Nc2nccc(n2)-c2cc(co2)COC/1 [Compound 55]	≤ 1	≤ 1	≤ 1	> 5	1 to 5	1 to 5		
COc1ccc2cc1COC/C=C/COc1cccc(c1)-c1ccnc(n1)N2 [Compound 6]	≤ 1		≤ 1	≤ 1	1 to 5		1 to 5	
C1=C/COCc2cc(ccc2OCCN2CCCC2)Nc2nccc(n2)-c2csc(c2)COC/1 [Compound 52]	≤ 1	≤ 1	≤ 1	> 5	≤ 1	≤ 1		
COc1ccc2cc1COC/C=C\COc1cccc(c1)-c1ccnc(n1)N2 [Compound 7]	> 5	> 5	≤ 1	> 5	≤ 1	> 5	> 5	
C1=C/COCc2cc(ccc2N2CCOCC2)Nc2nccc(n2)-c2cccc(c2)COC/1 [Compound 33]	≤ 1	≤ 1	≤ 1	> 5	1 to 5	1 to 5		
COc1cc2cc(c1OCCN1CCCC1)COC/C=C/COCc1cccc(c1)-c1ccnc(n1)N2 [Compound 32]	≤ 1	≤ 1	≤ 1	1 to 5	≤ 1	1 to 5		
C1=C2COC/C=C/COCc3cc(ccc3OCCN3CCCC3)Nc3nccc(n3)C(=C1)S2 [Compound 48]	≤ 1	≤ 1	≤ 1	> 5	≤ 1	≤ 1	≤ 1	
Fc1cc2cc(c1)-c1ccnc(n1)Nc1ccc(OCCN3CCCC3)c(c1)COC/C=C/CCO2 [Compound 36]	≤ 1	≤ 1	≤ 1	1 to 5	≤ 1	1 to 5		
C1=C/COCc2cc(ccc2OCCN2CCCC2)Nc2nccc(n2)-c2cncc(c2)COC/1 [Compound 56]	≤ 1	≤ 1	≤ 1	1 to 5	≤ 1	1 to 5		
c1cc2cc(c1)-c1ccnc(n1)Nc1ccc(OCCN3CCCC3)c(c1)COCC1CC1COC2 (stereo not shown) [Compound 53]	≤ 1	≤ 1	≤ 1	1 to 5	≤ 1	1 to 5		
CCN(CC)CCOc1ccc2cc1COC/C=C/CCOc1cccc(c1)-c1nc(ncc1C)N2 [Compound 29]	≤ 1	≤ 1	≤ 1	> 5	≤ 1	1 to 5		≤ 1
CCN(CC)CCOc1ccc2cc1COC/C=C/COCc1cccc(c1)-c1ccnc(n1)N2 [Compound 15]	≤ 1	≤ 1	≤ 1	1 to 5	≤ 1	1 to 5	1 to 5	≤ 1
C1=C/COCc2cc(ccc2OCCN2CCCC2)Nc2nccc(n2)-c2coc(c2)COC/1 [Compound 50]	≤ 1	≤ 1	≤ 1	> 5	≤ 1	1 to 5		
COc1ccc2cc1COC/C=C/COCc1cc(ccc1OCCN1CCCC1)Nc1nccc-2n1 [Compound 14]	≤ 1	≤ 1	≤ 1	> 5	≤ 1	≤ 1	1 to 5	≤ 1
CCN(CC)CCOc1ccc2cc1COC/C=C/CCOc1cc(ccc1OC)-c1ccnc(n1)N2 [Compound 20]	≤ 1	≤ 1	≤ 1	> 5	1 to 5	> 5	> 5	≤ 1
C1=C2COC/C=C/COCc3cc(ccc3OCCN3CCCC3)Nc3nccc(n3)C(=C1)O2 [Compound 38]	≤ 1	≤ 1	≤ 1	> 5	≤ 1	1 to 5		
C1=C/COCc2cc(ccc2OCCN2CCCC2)Nc2nccc(n2)-c2cccc(c2)COC/1 [Compound 13]		≤ 1		1 to 5	≤ 1	1 to 5	1 to 5	
Fc1ccc2cc1COC/C=C/COCc1cc(ccc1OCCN1CCCC1)Nc1nccc-2n1 [Compound 46]	≤ 1	≤ 1	≤ 1	1 to 5	≤ 1	1 to 5		
CN1CCN(c2ccc3cc2COC/C=C/COCc2cccc(c2)-c2ccnc(n2)N3)CC1 [Compound 40]	≤ 1	≤ 1	≤ 1	> 5	≤ 1	≤ 1		
